The values that follow come from patent US20210024507A1, “Compounds” (Step Pharma S.A.S., priority 2018, published 2021).

For test [1], the system named is human CTPS1. Briefly: RapidFire/MS-based enzyme selectivity assay, human CTPS1. The format is biochemical. Conditions: calculated from the CTPS1 and CTPS2 IC50 values. The gist of the method: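 Full-length C-terminal FLAG-His-tagged human CTPS1 (1-591) was preincubated 10 minutes at 25° C. with compound in 50 mM HEPES pH 8.0, 20 mM MgCl2, 5 mM KCl, 1 mM DTT and 0.01% Tween-20. Substrate mix contained 0.3 mM ATP, 0.2 mM UTP, 0.07 mM GTP and 0.1 mM L-glutamine, and the reaction ran in its linear phase at 25° C. before formic acid stop. CTP was measured by RapidFire MS relative to ^13C9-^15N3-CTP, and IC50 came from percent inhibition curves.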

Test [2] addresses T1, human CTPS1 (Homo sapiens, UniProt P17812).
T1 construct: purchased Proteros biostructures GmbH
T1 sequence (P17812 1-591): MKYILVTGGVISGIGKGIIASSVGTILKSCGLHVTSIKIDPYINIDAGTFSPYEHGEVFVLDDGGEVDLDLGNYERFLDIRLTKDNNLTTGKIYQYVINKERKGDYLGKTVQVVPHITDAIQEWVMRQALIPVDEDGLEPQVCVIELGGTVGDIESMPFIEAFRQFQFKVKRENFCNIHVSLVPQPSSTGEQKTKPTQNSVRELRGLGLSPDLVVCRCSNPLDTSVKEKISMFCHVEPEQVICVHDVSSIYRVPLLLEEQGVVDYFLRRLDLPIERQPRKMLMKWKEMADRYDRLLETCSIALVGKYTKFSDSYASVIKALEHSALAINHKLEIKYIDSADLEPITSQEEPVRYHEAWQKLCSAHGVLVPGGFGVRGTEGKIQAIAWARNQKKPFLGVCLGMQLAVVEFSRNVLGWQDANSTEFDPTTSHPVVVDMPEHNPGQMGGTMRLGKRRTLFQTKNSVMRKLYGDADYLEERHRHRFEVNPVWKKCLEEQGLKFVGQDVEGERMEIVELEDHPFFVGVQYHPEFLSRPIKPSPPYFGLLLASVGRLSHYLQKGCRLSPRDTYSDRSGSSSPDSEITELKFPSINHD
Briefly: Human CTPS1 enzyme inhibition (ADP-Glo Max assay). The conditions noted are these: human full length CTPS1, 25° C., read-out: CTPS1 (Human CTPS1 Enzyme Inhibition, IC50 grouped by potency range). The format is biochemical. Put shortly: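 Full-length C-terminal FLAG-His-tagged CTPS1, preincubated 10 min at 25 °C with compound in 50mM Tris pH 8.0, 10mM MgCl2, 0.01% Tween-20, 2mM L-cysteine. Started with ATP 0.31mM, GTP 0.034mM, UTP 0.48mM, L-glutamine 0.186mM in substrate mix, run within linear phase at 25 °C. ADP via ADP-Glo Max luminescence; IC50 from % inhibition curve.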

pIC50: −log10 of the molar value.

In the case of `CCOc1cncc(-c2ccc(NC(=O)C(F)(CC)c3cncc(NS(=O)(=O)C4CC4)n3)nc2)n1` (centres unmarked) [P200, 2-(6-(cyclopropanesulfonamido)pyrazin-2-yl)-N-(5-(6-ethoxypyrazin-2-yl)pyridin-2-yl)-2-fluorobutanamide], the “Selectivity (fold selectivity between CTPS1 and CTPS2)” value in test [1] is “++ (>30-60 fold (++))”. In addition, the pIC50 – broadly, −log10 of the IC50, conventionally taken in molar units – in test [2] is at least 7.00.
For `CCC(C(=O)Nc1ccc(-c2cncc(OC(C)C)n2)cn1)c1ccnc(NS(=O)(=O)C2CC2)n1` (centres unmarked) [P89, 2-(2-(cyclopropanesulfonamido)pyrimidin-4-yl)-N-(5-(6-isopropoxypyrazin-2-yl)pyridin-2-yl)butanamide] the same measures were “+++ (>60 fold (+++))” and at least 7.00.
In the same order, the values of `CCC(C(=O)Nc1ccc(-c2cncc(Cl)c2)cc1)c1ccnc(NS(=O)(=O)C2CC2)n1` (centres unmarked) [P1, N-(4-(5-Chloropyridin-3-yl)phenyI)-2-(2-(cyclopropanesulfonamido)pyrimidin-4-yl)butanamide] are “+ (2-30 fold (+))” and 6.00 to 7.00.
With `CCOc1cncc(-c2ccc(NC(=O)C(CCOC)c3ccnc(NS(=O)(=O)C4CC4)n3)cc2)n1` (centres unmarked) [P110, 2-(2-(cyclopropanesulfonamido)pyrimidin-4-yl)-N-(4-(6-ethoxypyrazin-2-yl)phenyl)-4-methoxybutanamide], the “Selectivity (fold selectivity between CTPS1 and CTPS2)” value in test [1] is given as “++ (>30-60 fold (++))”. In test [2], the negative-log IC50 (pIC50) is at least 7.00.
In the same order, the values of `CCOc1cncc(-c2ccc(NC(=O)C(F)(CC)c3cncc(NS(=O)(=O)C4CC4)n3)nc2)n1` (single isomer, unassigned) [P206, 2-(6-(cyclopropanesulfonamido)pyrazin-2-yl)-N-(5-(6-ethoxypyrazin-2-yl)pyridin-2-yl)-2-fluorobutanamide] are “+++ (>60 fold (+++))” and at least 7.00.
In the same order, the values of `CCOc1cncc(-c2ccc(NC(=O)C(C)(CCOC)c3cncc(NS(=O)(=O)C4CC4)n3)nc2)n1` (centres unmarked) [P198, 2-(6-(cyclopropanesulfonamido)pyrazin-2-yl)-N-(5-(6-ethoxypyrazin-2-yl)pyridin-2-yl)-4-methoxy-2-methylbutanamide] are “+++ (>60 fold (+++))” and at least 7.00.
Consider `CCC(C(=O)Nc1ccc(-c2cncc(OCC(F)(F)F)n2)cc1)c1ccnc(NS(=O)(=O)C2CC2)n1` (centres unmarked) [P108, 2-(2-(cyclopropanesulfonamido)pyrimidin-4-yl)-N-(4-(6-(2,2,2-trifluoroethoxy)pyrazin-2-yl)phenyl)butanamide], for which the “Selectivity (fold selectivity between CTPS1 and CTPS2)” value in test [1] is listed as “+++ (>60 fold (+++))”. Moreover, the pIC50 in test [2] is at least 7.00.
Regarding `CCC(C(=O)Nc1ccc(-c2cncc(OCC(F)(F)F)n2)cc1F)c1ccnc(NS(=O)(=O)C2CC2)n1` (centres unmarked) [P98, 2-(2-(cyclopropanesulfonamido)pyrimidin-4-yl)-N-(2-fluoro-4-(6-(2,2,2-trifluoroethoxy)pyrazin-2-yl)phenyl)butanamide], the “Selectivity (fold selectivity between CTPS1 and CTPS2)” value in test [1] is recorded as “+++ (>60 fold (+++))”. The negative-log IC50 (pIC50) in test [2] was at least 7.00.
In the same order, the values of `CCC(C(=O)Nc1ccc(-c2cncc(C(F)(F)F)n2)cn1)c1ccnc(NS(=O)(=O)C2CC2)n1` (centres unmarked) [P87, 2-(2-(cyclopropanesulfonamido)pyrimidin-4-yl)-N-(5-(6-(trifluoromethyl)pyrazin-2-yl)pyridin-2-yl)butanamide] are “++ (>30-60 fold (++))” and at least 7.00.
For `CCOc1cncc(-c2ccc(NC(=O)C(CC)c3cccc(NS(=O)(=O)C4CC4)n3)cc2)n1` (centres unmarked) [P191, 2-(6-(cyclopropanesulfonamido)pyridin-2-yl)-N-(4-(6-ethoxypyrazin-2-yl)phenyl)butanamide] the same measures were “++ (>30-60 fold (++))” and 6.00 to 7.00.
For `CCC(C(=O)Nc1ccc(-c2cncc(OC)n2)cc1F)c1ccnc(NS(=O)(=O)C2CC2)n1` (centres unmarked) [P95, 2-(2-(cyclopropanesulfonamido)pyrimidin-4-yl)-N-(2-fluoro-4-(6-methoxypyrazin-2-yl)phenyl)butanamide] the same measures were “+ (2-30 fold (+))” and at least 7.00.
Take `CCOc1cncc(-c2ccc(NC(=O)C(CC)c3ccnc(NS(=O)(=O)C4CC4)n3)nc2)n1` (centres unmarked) [P88, 2-(2-(cyclopropanesulfonamido)pyrimidin-4-yl)-N-(5-(6-ethoxypyrazin-2-yl)pyridin-2-yl)butanamide]: in test [1], the “Selectivity (fold selectivity between CTPS1 and CTPS2)” value was “+++ (>60 fold (+++))”. For the same compound, in test [2], the negative logarithm of the IC50 (pIC50) was at least 7.00.
`CCOc1cncc(-c2ccc(NC(=O)C(CC)c3cncc(NS(=O)(=O)C4CC4)n3)cc2)n1` (centres unmarked) [P202, 2-(6-(cyclopropanesulfonamido)pyrazin-2-yl)-N-(4-(6-ethoxypyrazin-2-yl)phenyl)butanamide]: the “Selectivity (fold selectivity between CTPS1 and CTPS2)” value in test [1] is on record as “+++ (>60 fold (+++))”. Further, the pIC50 in test [2] is at least 7.00.
